Measurements: paper PMC3873602, “Atheroprotective Vaccination with MHC-II Restricted Peptides from ApoB-100” (Frontiers in Immunology, 2013)
“Also recorded” adds a separate entry of the source. Like-named read-outs stand apart in the source and are kept apart here. Values belong to the molecule of their own block, whether it stands above or below them. Ends that are not written are not given here.

How the values were obtained:
H-2 I-A^b [1] = target: T1, H-2 I-A^b (Mus musculus, UniProt P14434+P14483); assay: I-A^b binding affinity, competitive inhibition assay with purified MHC and radio-labeled ligand
T1 sequence (P14434 24-256): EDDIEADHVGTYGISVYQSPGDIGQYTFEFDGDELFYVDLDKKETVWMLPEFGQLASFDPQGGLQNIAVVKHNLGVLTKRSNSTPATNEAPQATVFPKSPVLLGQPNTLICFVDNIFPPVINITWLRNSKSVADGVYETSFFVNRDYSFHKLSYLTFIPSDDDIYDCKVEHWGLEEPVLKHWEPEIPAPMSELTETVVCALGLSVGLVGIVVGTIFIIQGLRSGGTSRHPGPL
T1 sequence (P14483 28-265): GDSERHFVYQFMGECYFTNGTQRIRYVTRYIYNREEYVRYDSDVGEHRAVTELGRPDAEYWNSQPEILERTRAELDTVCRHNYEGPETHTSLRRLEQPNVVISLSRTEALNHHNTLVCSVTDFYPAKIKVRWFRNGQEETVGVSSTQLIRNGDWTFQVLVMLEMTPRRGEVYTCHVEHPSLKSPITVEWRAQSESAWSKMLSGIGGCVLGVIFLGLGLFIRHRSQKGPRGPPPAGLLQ
Procedure: We measured I-A^b binding affinity using a classical competitive inhibition assay utilizing purified MHC and high affinity radio-labeled I-A^b ligands ([39]). Their ability to displace the radio-labeled I-A^b ligand was measured, and an inhibitory concentration required to displace 50% of the radio-labeled ligand (IC50) was determined.
A peptide can only be recognized by a CD4^+ helper T-cell if it is bound to MHC class II. Because Apoe^−/− mice are on a C57B/6 background, candidate epitopes must be able to bind to the Class II allele, I-A^b. Previously, it has been shown that I-A^b binding motifs can be predicted using algorithms based on the number of anchor residues and hydrophobicity ([36]–[38]). […] The binding affinity is reflected by the amount of peptide, in […], needed to inhibit binding of a standardized radio-labeled peptide by 50% (the IC50) ([39]).

Apoe^−/− mice [2] = assay: Aortic root plaque quantification (Oil Red O) after 1× CFA + 4× IFA immunization; assay type: in vivo, mouse; details: female Apoe^−/− mice, 1× CFA + 4× IFA scheme, WD 13 weeks; vs adjuvant-only mice; N = 5
From the text: Eight-week-old female Apoe^−/− mice on C57BL/6 background were purchased from Jackson Laboratories (Bar Harbor, ME, USA). Mice were housed in a specific pathogen free environment and fed chow diet until 10 weeks of age. At 10 weeks of age, mice were started on WD (adjusted calories diet with 42% from fat, Harlan Labs Cat #: TD.88137, CA, USA) and remained on WD until sacrifice at 23 weeks old.
Aortic root sections were examined as follows. Hearts were harvested, placed in Optimal Cutting Temperature medium (OCT, Electron Microscopy Sciences, Hatfield, PA, USA), and frozen at −80°C. Beginning at the first appearance of the tri-leaflet aortic valve, successive 5 μm transverse sections were made for a distance of 100 μm. From these, we analyzed every other section, for a total of 10 sections per root. Sections were then stained with Oil Red O and counter-stained with hematoxylin. Extent of atherosclerosis was then determined as the area involved on each section. To measure en face lesion formation, the whole aorta was carefully cleaned in situ and then the whole aorta pinned out after paraformaldehyde incubation at RT for at least 2 h. Staining for atherosclerotic plaque was performed by incubating samples in Sudan IV. Quantification was performed using ImagePro software (Media Cybernetics, Rockville, MD, USA). […]

Apoe^−/− mice [3] = assay: Antibody titers in plasma by chemiluminescent enzyme immunoassay; assay type: in vivo, mouse; details: pooled plasma, chemiluminescent ELISA, 1:250 dilution
Procedure: Antibody titers in plasma were determined by chemiluminescent enzyme immunoassay as previously described ([41]). In brief, white “U” bottom plates (Thermo Lab systems, USA) were coated with various antigens at 5 μg/mL in PBS for overnight incubation. Following blocking with 1% BSA-TBS serum was added in increasing dilutions and incubated at RT for 90 min. Bound antibodies levels were detected using appropriate alkaline phosphatase-conjugated secondary antibodies and a 50% aqueous solution of LumiPhos 530 (Lumigen, USA). Data are expressed as relative light units counted per 100 ms (RLU/100 ms).

mice = details: human ApoB-100 B-cell epitope; cited from earlier work
From the text: Several studies have reported a protective effect of vaccination with LDL, or ox-LDL, on the development of atherosclerotic plaque ([23]–[25]). However, the mechanism by which these immunizations convey atheroprotection is an ongoing area of research. […] This was initially a promising hypothesis which subsequently led to the search for atheroprotective B-cell (antibody) epitopes. The discovery of such epitopes was first reported by ...

I-Ab = I-Ab (Mus musculus, UniProt P14434+P14483); details: MHC Class II allele of Apoe^−/− and LDL-R^−/− mice; cited from earlier work
From the text: More recently, researchers have sought to describe the changes in cellular (rather than humoral) immunity that may result from immunization with B-cell epitopes from ApoB-100. Several recent papers have reported an increase in FoxP3^+ expressing TREGS in secondary lymphoid organs [spleens ([32]) and lymph nodes ([33])] after immunization of mice with P210. […] It is not known whether these TREGS are causally related to the atheroprotection that is observed.

H-2 I-A^b [4] = target: T1, H-2 I-A^b; details: known T-cell epitope for comparison; cited from earlier work
From the text: Because Apoe^−/− mice are on a C57B/6 background, candidate epitopes must be able to bind to the Class II allele, I-A^b. Previously, it has been shown that I-A^b binding motifs can be predicted using algorithms based on the number of anchor residues and hydrophobicity ([36]–[38]).

H-2 I-A^b (mouse) = assay: radioligand binding; competitive inhibition assay: peptides displace a high affinity radio-labeled I-A^b ligand from purified MHC; (label) < (MHC) and IC50 ≥ (MHC), so that IC50 values approximate the true Kd
[5] = Table 1, displacement of 50% of radio-labeled I-A^b ligand, purified MHC, IC50 approximates Kd
[6] = Table 2, ApoB3501–3516- and ApoB978–993-related overlapping peptides, read-out: H-2 I-Ab (IC50 nM)

Molecule: CC(C)C[C@H](NC(=O)[C@H](Cc1ccccc1)NC(=O)[C@H](CO)NC(=O)[C@@H](N)CO)C(=O)N[C@@H](CO)C(=O)N[C@@H](CCC(N)=O)C(=O)N[C@@H](CCC(=O)O)C(=O)N[C@@H](Cc1ccc(O)cc1)C(=O)N[C@@H](CO)C(=O)NCC(=O)N[C@@H](CO)C(=O)N[C@H](C(=O)N[C@@H](C)C(=O)N[C@@H](CC(N)=O)C(=O)N[C@@H](CCC(=O)O)C(=O)N[C@@H](C)C(=O)O)C(C)C
IC50 (H-2 I-A^b [1]; [6]): 6.8 nM

Molecule: HLEYVSSELRKSLQV
IC50 (H-2 I-A^b [1]; [5]): 22200 nM

Molecule: TRFKHLRKYTYNYEAESSS [Peptide P2]
atheroprotection after vaccination of mice (mice): 40–60%

Molecule: CC(C)C[C@H](NC(=O)[C@H](C)NC(=O)[C@H](Cc1ccc(O)cc1)NC(=O)[C@H](CC(C)C)NC(=O)[C@@H](NC(=O)[C@H](C)NC(=O)[C@H](CCCNC(=N)N)NC(=O)[C@@H](N)CO)[C@@H](C)O)C(=O)N[C@@H](CO)C(=O)N[C@@H](Cc1c[nH]cn1)C(=O)N[C@@H](C)C(=O)N[C@H](C(=O)N[C@@H](CC(N)=O)C(=O)N[C@@H](CO)C(=O)N[C@@H](Cc1ccc(O)cc1)C(=O)O)C(C)C
IC50 (H-2 I-A^b [1]; [5]): 1370 nM

Molecule: KTTKQSFDLSVKAQYKKNKH [Peptide P210]
atheroprotection after vaccination of mice (mice): 40–60%
binding to I-Ab (I-Ab): does not bind; also recorded: not to bind to I-Ab

Molecule: YENFAASNKLDVTFS
H-2 I-A^b (IC50 nM) (H-2 I-A^b [1]; [5]): ∞

Molecule: NVYLNSKGTRSSVRLQ
IC50 (H-2 I-A^b [1]; [6]): 907 nM

Molecule: GWYRSPFSRVVHLY [MOG38–51]
IC50 (H-2 I-A^b [4]): 354 nM

Molecule: CC(C)C[C@H](NC(=O)[C@H](Cc1ccc(O)cc1)NC(=O)[C@@H](NC(=O)[C@H](CC(N)=O)NC(=O)[C@H](C)NC(=O)[C@H](CCC(=O)O)NC(=O)[C@H](CC(N)=O)NC(=O)[C@H](C)NC(=O)[C@@H](NC(=O)[C@H](CO)NC(=O)CNC(=O)[C@@H](N)CO)C(C)C)C(C)C)C(=O)N[C@@H](CC(N)=O)C(=O)N[C@@H](CO)C(=O)N[C@@H](CCCCN)C(=O)NCC(=O)O
IC50 (H-2 I-A^b [1]; [6]): 172 nM

Molecule: IALDDAKINFNEKLSQLQTY [Peptide P143]
atheroprotection after vaccination of mice (mice): 40–60%

Molecule: SFTKGNIKSSFLSQEY [ApoB_(3501–3516)-related peptide, position 3489, 16 residues]
IC50 (H-2 I-A^b (mouse)): 1170 nM

Molecule: NNYALFLSPRAQQAS [mouse ApoB-100 peptide 4505–4520]
IC50 (H-2 I-A^b (mouse)): 1300 nM

Molecule: NVYLNSKGTRSSVRLQ [ApoB_(3501–3516)-related peptide, position 3513, 16 residues]
IC50 (H-2 I-A^b (mouse)): 907 nM

Molecule: HLEYVSSELRKSLQV [mouse ApoB-100 peptide 4054–4069]
IC50 (H-2 I-A^b (mouse)): 22200 nM

Molecule: SGSVANEANVYLNSKG [ApoB_(3501–3516)-related peptide, position 3505, 16 residues]
IC50 (H-2 I-A^b (mouse)): 172 nM

Further lines, with some results ahead:

IC50 (H-2 I-A^b [1]; [5]): 1300 nM
Molecule: NNYALFLSPRAQQAS

IC50 (H-2 I-A^b [1]; [6]): 1170 nM
Molecule: SFTKGNIKSSFLSQEY

antibody titers to ApoB3501–3516 or ApoB978–993 in mice immunized with irrelevant peptide (Apoe^−/− mice [3]): no antibody titers
IgG (IgG1, IgG2c) response to the immunizing peptide (Apoe^−/− mice [3]; vs 1× CFA + 4× IFA group): predominantly IgG2c response
Molecule: MEVGWYRSPFSRVVHLYRNGK [MOG35–55, irrelevant control peptide, myelin oligodendrocyte glycoprotein 35–55]
reduction in aortic sinus (aortic root) plaque development, ORO staining (Apoe^−/− mice [2]): no significant decrease

IC50 (H-2 I-A^b [1]; [6]): 1260 nM
Molecule: SSTESASYYPLTGDTR

IC50 (H-2 I-A^b [1]; [6]): 17 nM
Molecule: C[C@H](NC(=O)CNC(=O)[C@@H](NC(=O)[C@@H](N)[C@@H](C)O)[C@@H](C)O)C(=O)N[C@@H](Cc1ccc(O)cc1)C(=O)N[C@@H](CO)C(=O)N[C@@H](CC(N)=O)C(=O)N[C@@H](C)C(=O)N[C@@H](CO)C(=O)N[C@@H](CO)C(=O)N[C@H](C(=O)N[C@@H](CCC(=O)O)C(=O)N[C@@H](CO)C(=O)N[C@@H](C)C(=O)N[C@@H](CO)C(=O)N[C@@H](Cc1ccc(O)cc1)C(=O)O)[C@@H](C)O

IC50 (H-2 I-A^b (mouse)): 1260 nM
Molecule: SSTESASYYPLTGDTR [ApoB_(978–993)-related peptide, position 985, 16 residues]

IC50 (H-2 I-A^b (mouse)): 6.8 nM
Molecule: SSFLSQEYSGSVANEA [ApoB_(3501–3516)-related peptide, position 3497, 16 residues]

IC50 (H-2 I-A^b (mouse)): 1370 nM
Molecule: SRATLYALSHAVNSY [mouse ApoB-100 peptide 438–453]

IC50 (H-2 I-A^b (mouse)): 17 nM
Molecule: TTGAYSNASSTESASY [ApoB_(978–993)-related peptide, position 977, 16 residues]
